Results on one molecule are retold here after patent publication US10765680B2, “Combination of a MCL-1 inhibitor and a taxane compound, uses and pharmaceutical compositions thereof” (priority 2017, dated 2020).

In experiment [1] the test system is HCC70 breast cancer cell line. The experiment in a line: 72 hours CellTiter-Glo proliferation assay, HCC70. Type of experiment: cell-based. The conditions noted are these: single agent, read-out: Abs IC50. The procedure:
(§1) Compounds were dissolved in 100% DMSO (Sigma, Catalog # D2438-50 ML) at a stock concentration of 10 mM and stored at −20° C. until use. Compounds were arrayed in 2 ml deep 96-well plates (Greiner bio-one, catalog number 780271) serially diluted 3-fold. Compound 1 was used over a concentration range of 0.0-10.0 μM. Paclitaxel was used over a concentration range of 0.0-1.0 μM in breast cancer cells and 0.0-2.0 μM range in lung cancer cells.
(§2) All cell lines were purchased from the American Type Culture Collection and cultured according to vendor recommendations. […] All cell lines were determined to be free of mycoplasma contamination by a PCR detection assay performed at Idexx Radil (Columbia, Mo., USA) and authenticated by SNP analysis. […] Cells were expanded to T-75 flasks and assessed for viability using a Beckman-Coulter ViCell counter prior to plating. […]
(§3) Cell proliferation was measured in 72 hours CellTiter-Glo™ (CTG) assays and all results shown are the result of at least triplicate measurements. […] After 72 hours of compound treatment the effects of compounds on cell proliferation was determined using the CellTiter-Glo™ Luminescent Cell Viability Assay (Promega, Catalog # G7573). This is a homogeneous method to determine the number of viable cells in culture based on quantitation of the ATP present, which signals the presence of metabolically active cells. […]
A general note: ATP-based viability assays read luminescence as a measure of living cells.

Experiment [2] has as its system MCF7 breast cancer cell line. The experiment in a line: 72 hours CellTiter-Glo proliferation assay, MCF7. Type of experiment: cell-based. The conditions noted are these: single agent, read-out: Abs IC50. Here is the method: as §1, §2, §3
Experiment [3] relates to MDA-MB-157 breast cancer cell line. The experiment in a line: 72 hours CellTiter-Glo proliferation assay, MDA-MB-157. The experiment is classed as cell-based. The conditions noted are these: single agent, read-out: Abs IC50. Here is the method:
as §1, §2, §3

Experiment [4] has as its system MDA-MB-436 breast cancer cell line. The experiment in a line: 72 hours CellTiter-Glo proliferation assay, MDA-MB-436. Type of experiment: cell-based. The conditions noted are these: single agent, read-out: Abs IC50. The procedure: as §1, §2, §3
Experiment [5] concerns PDX models resistant to docetaxel. The experiment in a line: PDX models resistant to docetaxel, efficacy. Type of experiment: in vivo, female Swiss Nude mice. To be noted: Compound 1 70 mg/kg IV once a week, liposomal formulation. Here is the method: PDX models whose resistance to docetaxel has been confirmed in vivo were tested. Each treatment group included 5 female Swiss Nude mice, aged from 6 to 8 weeks old. The treatment started when xenografts reached a mean tumor volume of ˜120-150 mm^3. Groups of mice were then randomly affected to the different treatments. The number of grafted animals depended on the homogeneity of the tumor growth.
Formulated in a liposomal formulation, Compound 1 was administered intravenously at 70 mg/kg once a week. The formulation had to be prepared extemporaneously. Paclitaxel diluted in 0.9% NaCl was given ip at 25 mg/kg. Paclitaxel was given QW 16 hours before the administration of Compound 1. The administration schedule of the different treatments is defined as follows: […]
Tumor sizes were measured twice a week and weights of individual mice were measured once a week. Treatments were done until the median tumor volume of the most responsive group started to regrow. Mice were followed after the stop of the treatment to compare the time to relapse between the groups. […]

Turning to `COc1ccccc1-c1nccc(COc2ccccc2C[C@@H](Oc2ncnc3sc(-c4ccc(F)cc4)c(-c4ccc(OCCN5CCN(C)CC5)c(Cl)c4C)c23)C(=O)O)n1` [Compound 1, (2R)-2-{[(5Sa)-5-{3-chloro-2-methyl-4-[2-(4-methylpiperazin-1-yl)ethoxy]phenyl}-6-(4-fluorophenyl)thieno[2,3-d]pyrimidin-4-yl]oxy}-3-(2-{[2-(2-methoxyphenyl)pyrimidin-4-yl]methoxy}phenyl)propanoic acid], the half-maximal inhibitory concentration (IC50) (in general, the concentration that gives 50% inhibition) in experiment [1] was 704 nM; in experiment [2], 1290 nM; in experiment [3], above 10000 nM; in experiment [4], above 10000 nM. The “inhibition of tumor growth, single agent” value in experiment [5] was “insufficient in inhibiting tumor growth”.
